Values joined by “and” are separate entries in the source; they are usually repeats but may differ in a detail not shown here. Identical values can stand only once.
How the values were obtained:
pBR322 plasmid DNA = experiment: Plasmid relaxation assay: DNA photocleavage of supercoiled plasmid under UV irradiation; type: biochemical
Method: General information. ^1H, ^13C and ^19F NMR were collected on a Varian Gemini 300 MHz NMR spectrometer and a Bruker 300 MHz NMR spectrometer. Mass spectrometry data was collected on a Jeol JMS-600H. UV spectra were recorded on a Shimadzu UV-2100. Fluorescence spectra were obtained with SPEX FluoMax spectrofluorimeter using right-angle geometry. pH was adjusted with AB 15 plus pH meter (Accument) after standardization at 25° C. All buffers were prepared and pH-adjusted at room temperature (25° C.). Plasmid DNA Photocleavage. pBR322 plasmid DNA (4,361 b/p; from BioLabs Inc., 1 μg/μL solution in 10 mM Tris-HCl (pH 8.0), and 1 mM EDTA buffer) was diluted to a concentration of 0.01 μg/μL. The solution containing cleavage agent, DNA (30 μM/bp) in 20 mM sodium phosphate buffer was incubated for 1 hour at 30° C. Samples were placed on ice at a distance of 20 cm from 200 W Hg—Xe lamp (Spectra-Physics, Laser & Photonics Oriel Instruments with long pass filter with 324 nm cut-off wavelength). Electrophoretic Analysis. The gel electrophoresis was carried out in 1×TBE buffer at 80 V using Miligel FisherBiotech Horizontal Electrophoresis System. All gels were run on 1% agarose slab gels. Before loading, the DNA samples were mixed with 0.33 volume of tracking dye containing bromophenol blue (0.25%) and glycerol (30%) in water. After staining in ethidium bromide solution (2 μg/ml) for 1 hour, the gel was washed with water and pictures were taken with Polaroid 3000ISO type 667 film. The relative quantities of the supercoiled, nicked, and linear DNA were calculated by integrating the “area” of each spot by the image analyzer software Total/Lab (Nonlinear Dynamics Ltd., UK). The amount of supercoiled DNA was multiplied by factor of 1.4 to account for reduced ethidium bromide intercalation into supercoiled DNA. pH titration by ^1H-NMR. pH* of compound 8 (3 mM) solution in D2O containing 0.05 wt % 3-(trimethylsilyl)propionic-2,2,3,3-d4 acid, sodium salt (TSP-d4) was adjusted with 10 wt % DCI and NaOD in D2O at 25° C. under argon purged condition. Spectrometric determinations of pKa. pH of 10 μM of compound solution in H2O was adjusted with 10, 100 mM HCl (aq) and NaOH (aq) solution under argon purged condition. Excitation wavelength was 330 nm and polymethacrylate fluorimeter cuvettes were used. Absorbance and fluorescence titration with DNA. The concentrations of calf thymus DNA stock solution was determined spectophotometrically using the following molar absorptovity values: 1.32×10^4 M^−1 cm^−1 (per base pair) at 260 nm. All experiments were done in 20 mM sodium phosphate buffer at 25° C. and polymethacrylate fluorimeter cuvettes were used. The same amount of DNA was added to both sample and reference cuvettes during UV/Vis titration. Determination of excited state lifetimes. The concentration of compound solution was 10 μM in 20 mM sodium phosphate buffer. The photoluminescence lifetime measurements were conducted by exciting the samples with the output of a Nd:VO—4 (Spectra-Physics Vanguard, 2 W, 532 nm, 76 MHz, 10 ps) pumped R6G dye laser (Coherent 702-1). The output of the dye laser (600 nm, Rhodamine 6G) was cavity dumped at 1.9 MHz and frequency doubled using a BBO crystal to excite the fluorophore (the excitation wavelength used was 290 nm). Samples were excited with <1 mW power and the emission was collected at right angles onto a Chromex S3 500 is 0.5 m imaging monochromator with a 50 g/mm grating and 0.5 nm resolution. Output of the monochromator is focused into a Hamamatsu C5680 streak camera operating at a 20 ns window for the fluorophore. Intensity analysis was carried out by integrating the spectral profile in time on the streak camera. Lifetime analysis over 6-7 lifetimes of the fluorophore was conducted by binning the photoluminescence intensity collected on the streak camera over a 20 nm spectral window at the centroid value of the emission of the fluorophore. Ethidium bromide displacement. […]

calf thymus (CT) DNA [1] = experiment: Fluorescence (emission) titration with DNA; type: binding; conditions: 10 μM, 20 mM phosphate buffer
Method: General information. ^1H, ^13C and ^19F NMR were collected on a Varian Gemini 300 MHz NMR spectrometer and a Bruker 300 MHz NMR spectrometer. Mass spectrometry data was collected on a Jeol JMS-600H. UV spectra were recorded on a Shimadzu UV-2100. Fluorescence spectra were obtained with SPEX FluoMax spectrofluorimeter using right-angle geometry. pH was adjusted with AB 15 plus pH meter (Accument) after standardization at 25° C. All buffers were prepared and pH-adjusted at room temperature (25° C.). Plasmid DNA Photocleavage. pBR322 plasmid DNA (4,361 b/p; from BioLabs Inc., 1 μg/μL solution in 10 mM Tris-HCl (pH 8.0), and 1 mM EDTA buffer) was diluted to a concentration of 0.01 μg/μL. The solution containing cleavage agent, DNA (30 μM/bp) in 20 mM sodium phosphate buffer was incubated for 1 hour at 30° C. […] The relative quantities of the supercoiled, nicked, and linear DNA were calculated by integrating the “area” of each spot by the image analyzer software Total/Lab (Nonlinear Dynamics Ltd., UK). […] Absorbance and fluorescence titration with DNA. The concentrations of calf thymus DNA stock solution was determined spectophotometrically using the following molar absorptovity values: 1.32×10^4 M^−1 cm^−1 (per base pair) at 260 nm. […]

[2] = tested on: three human clear cell renal cell carcinoma (RCC) cell lines (UMRC3, UMRC6, 786-O); experiment: RCC cell proliferation assay, three cell lines together; type: cell-based; conditions: 10 μM
Method: (§1) FIG. 23 provides the results of cell proliferation assays using three different RCC cell lines: (a) UMRC3, (b) UMRC6 and (c) 786-O, and compounds I-5; RCC cells were resuspended in media and treated with UV radiation (350 nm) for 10 minutes with and without indicated compounds; control cells were exposed to the indicated compound 1-5 at final concentration of 10 μM; cell numbers determined after 72 hours as described in the SI Section;
(§2) The ability of compounds 1-5 to inhibit cell proliferation in three human clear cell renal cell carcinoma (RCC) cell lines was tested in the dark and under photoactivation (FIG. 23). No difference was detected in the control experiments between cells not exposed to UV versus those that were exposed to UV at 350 nm for 10 minutes in any of the three RCC cell lines tested (FIG. 23 A, B & C; first two columns).

[3] = Solubility / aggregation in water; type: physicochemical; conditions: higher pH values (~8)
From the text: The decrease in solubility leads to the apparent aggregation and distortion of potentiometric curves at the higher pH. This distortion prevents accurate curve fitting (see FIG. 25). Thus, we had to resort to alternative spectral methods. Fortunately, there is a selection of convenient procedures which provide complementary information which can be used for cross-checking the accuracy of the alternative approaches.

UMRC6 cells = experiment: RCC cell proliferation assay, UMRC6; type: cell-based; conditions: Homo sapiens, UMRC6, UV 350 nm 10 minutes, 72 hours
Method: as §1, §2

calf thymus (CT) DNA [4] = experiment: UV-Vis absorbance titration with DNA; type: binding; conditions: 20 mM phosphate buffer
Method: General information. ^1H, ^13C and ^19F NMR were collected on a Varian Gemini 300 MHz NMR spectrometer and a Bruker 300 MHz NMR spectrometer. Mass spectrometry data was collected on a Jeol JMS-600H. UV spectra were recorded on a Shimadzu UV-2100. Fluorescence spectra were obtained with SPEX FluoMax spectrofluorimeter using right-angle geometry. pH was adjusted with AB 15 plus pH meter (Accument) after standardization at 25° C. All buffers were prepared and pH-adjusted at room temperature (25° C.). Plasmid DNA Photocleavage. pBR322 plasmid DNA (4,361 b/p; from BioLabs Inc., 1 μg/μL solution in 10 mM Tris-HCl (pH 8.0), and 1 mM EDTA buffer) was diluted to a concentration of 0.01 μg/μL. The solution containing cleavage agent, DNA (30 μM/bp) in 20 mM sodium phosphate buffer was incubated for 1 hour at 30° C. Samples were placed on ice at a distance of 20 cm from 200 W Hg—Xe lamp (Spectra-Physics, Laser & Photonics Oriel Instruments with long pass filter with 324 nm cut-off wavelength). Electrophoretic Analysis. The gel electrophoresis was carried out in 1×TBE buffer at 80 V using Miligel FisherBiotech Horizontal Electrophoresis System. All gels were run on 1% agarose slab gels. Before loading, the DNA samples were mixed with 0.33 volume of tracking dye containing bromophenol blue (0.25%) and glycerol (30%) in water. After staining in ethidium bromide solution (2 μg/ml) for 1 hour, the gel was washed with water and pictures were taken with Polaroid 3000ISO type 667 film. The relative quantities of the supercoiled, nicked, and linear DNA were calculated by integrating the “area” of each spot by the image analyzer software Total/Lab (Nonlinear Dynamics Ltd., UK). […] Absorbance and fluorescence titration with DNA. The concentrations of calf thymus DNA stock solution was determined spectophotometrically using the following molar absorptovity values: 1.32×10^4 M^−1 cm^−1 (per base pair) at 260 nm. […]

[5] = Fluorometric (emission) determination of pKa; type: physicochemical
Method: General information. ^1H, ^13C and ^19F NMR were collected on a Varian Gemini 300 MHz NMR spectrometer and a Bruker 300 MHz NMR spectrometer. Mass spectrometry data was collected on a Jeol JMS-600H. UV spectra were recorded on a Shimadzu UV-2100. Fluorescence spectra were obtained with SPEX FluoMax spectrofluorimeter using right-angle geometry. pH was adjusted with AB 15 plus pH meter (Accument) after standardization at 25° C. All buffers were prepared and pH-adjusted at room temperature (25° C.). Plasmid DNA Photocleavage. pBR322 plasmid DNA (4,361 b/p; from BioLabs Inc., 1 μg/μL solution in 10 mM Tris-HCl (pH 8.0), and 1 mM EDTA buffer) was diluted to a concentration of 0.01 μg/μL. The solution containing cleavage agent, DNA (30 μM/bp) in 20 mM sodium phosphate buffer was incubated for 1 hour at 30° C. Samples were placed on ice at a distance of 20 cm from 200 W Hg—Xe lamp (Spectra-Physics, Laser & Photonics Oriel Instruments with long pass filter with 324 nm cut-off wavelength). Electrophoretic Analysis. The gel electrophoresis was carried out in 1×TBE buffer at 80 V using Miligel FisherBiotech Horizontal Electrophoresis System. All gels were run on 1% agarose slab gels. Before loading, the DNA samples were mixed with 0.33 volume of tracking dye containing bromophenol blue (0.25%) and glycerol (30%) in water. After staining in ethidium bromide solution (2 μg/ml) for 1 hour, the gel was washed with water and pictures were taken with Polaroid 3000ISO type 667 film. The relative quantities of the supercoiled, nicked, and linear DNA were calculated by integrating the “area” of each spot by the image analyzer software Total/Lab (Nonlinear Dynamics Ltd., UK). The amount of supercoiled DNA was multiplied by factor of 1.4 to account for reduced ethidium bromide intercalation into supercoiled DNA. pH titration by ^1H-NMR. pH* of compound 8 (3 mM) solution in D2O containing 0.05 wt % 3-(trimethylsilyl)propionic-2,2,3,3-d4 acid, sodium salt (TSP-d4) was adjusted with 10 wt % DCI and NaOD in D2O at 25° C. under argon purged condition. Spectrometric determinations of pKa. pH of 10 μM of compound solution in H2O was adjusted with 10, 100 mM HCl (aq) and NaOH (aq) solution under argon purged condition. Excitation wavelength was 330 nm and polymethacrylate fluorimeter cuvettes were used. Absorbance and fluorescence titration with DNA. The concentrations of calf thymus DNA stock solution was determined spectophotometrically using the following molar absorptovity values: 1.32×10^4 M^−1 cm^−1 (per base pair) at 260 nm. All experiments were done in 20 mM sodium phosphate buffer at 25° C. and polymethacrylate fluorimeter cuvettes were used. The same amount of DNA was added to both sample and reference cuvettes during UV/Vis titration. Determination of excited state lifetimes. The concentration of compound solution was 10 μM in 20 mM sodium phosphate buffer. The photoluminescence lifetime measurements were conducted by exciting the samples with the output of a Nd:VO—4 (Spectra-Physics Vanguard, 2 W, 532 nm, 76 MHz, 10 ps) pumped R6G dye laser (Coherent 702-1). The output of the dye laser (600 nm, Rhodamine 6G) was cavity dumped at 1.9 MHz and frequency doubled using a BBO crystal to excite the fluorophore (the excitation wavelength used was 290 nm). Samples were excited with <1 mW power and the emission was collected at right angles onto a Chromex S3 500 is 0.5 m imaging monochromator with a 50 g/mm grating and 0.5 nm resolution. […]

Cl.Cl.NCCCC[C@H](N)C(=O)Nc1ccc(C#Cc2c(F)c(F)nc(F)c2F)cc1 [Compound 4, (S)-2,6-Diamino-hexanoic acid [4-(2,3,5,6-tetrafluoro-pyridin-4-ylethynyl)-phenyl]-amide dihydrochloride]
decrease of total DNA cleavage activity on increasing phosphate buffer from 10 mM to 50 mM (pBR322 plasmid DNA; pH 8, 10 μM): 34%
unreacted DNA (Form I) (pBR322 plasmid DNA; pH 8, 3 minutes of irradiation, 15 μM, 30 μM/bp DNA): 86%
DNA remains unreacted (pBR322 plasmid DNA; pH 8, after an hour of irradiation, 10 μM): ~60%
change in fluorescence upon DNA titration (calf thymus (CT) DNA [1]): increase in fluorescence
cytotoxicity in the dark [2]: considerably less cytotoxic in the dark
aggregation and precipitation [3]: does not aggregate and precipitate
mortality at 10 µM (UMRC6 cells): 90%
hypochromicity on titration with DNA (calf thymus (CT) DNA [4]; pH 5.5, 10 μM): 20%
hypochromicity on titration with DNA (calf thymus (CT) DNA [4]; pH 7, 10 μM): 14%
hypochromicity on titration with DNA (calf thymus (CT) DNA [4]; pH 8, 10 μM): 12%
α-pKa lower than the pKa for alanine conjugate 6 ([5]; difference to compound 6): ~0.5 units
decrease in the basicity of the α-amino group relative to phenyl conjugate 8 ([5]; difference to compound 8): 0.5-0.6 pKa units
pKa1 ([5]; emission, α-amino group (4, 6), ε-amino group (7), dihydrochloride): 7.0 and 6.98

From patent US8334403B1, “C-lysine conjugates as pH-controlled, light-activated reagents for double stranded DNA cleavage and associated methods” (Florida State University Research Foundation, Inc., priority 2005, dated 2012)
